{"source": "patent US9034359B2", "about": "“Composition comprising biodegradable hydrating ceramics for controlled drug delivery” (Lidds AB, priority 2003, dated 2015)", "assay": "Dog study: plasma concentration of 2-hydroxyflutamide after implant in prostate tissue", "format": "in vivo", "conditions": "30, 60 or 120 mg in calcium sulphate-water implant in prostate tissue", "experimental": "Composition according to example 1, composition 2, with three different 2-hydroxyflutamide (HT) concentrations, was tested in a dog study. The concentration profile of HT in prostate tissue in male dogs after local administration of the composition was investigated at different time points. Also a reference implant without HT was implanted in one dog.\nThree male dogs are given 30, 60 or 120 mg of 2-hydroxy-flutamide by local implant delivery system in the prostate tissue; the total implantation time was 3 weeks.\nThe implant drug delivery system was inserted locally into the prostate tissue through sterile needles during rectal ultrasound guidance. The animals were under anesthesia during the insertion procedure.\nBlood samples were taken every day for the first week and then once a week for the remaining weeks. Plasma samples were collected in tubes with EDTA and the plasma were transferred to microtubes of 2 ml, (sterile kryotubes from Sarstedt; No. 694.005).\nThe quantification of the parent drug, 2-hydroxyflutamide, in the plasma and tissue samples, was done by HPLC-MS analysis.", "data": [{"smiles": "CC(C)(O)C(=O)Nc1ccc([N+](=O)[O-])c(C(F)(F)F)c1", "note": "[2-hydroxyflutamide]", "values": [{"measurement": "extended plasma profile duration", "value": "3 to 6", "unit": "days"}]}]}
